Measured values reported in EP2823816A1, “Inhibitors of Neuropilin and use thereof for the treatment of Neuropilin-related diseases” (Tragex Pharma, priority 2013, dated 2015).

Columns and labels:
MDA-MB-231 cells = test: In vivo xenograft study, tumor growth; conditions: NOD-SCID IL-2Rγ-/- mice, MDA-MB-231 xenograft, 10 or 50 mg/kg, oral gavage three times a week, Figure 5B
Procedure: Female (NOD-SCID, IL-2Rγ^-/-) mice 5-6 weeks old were injected subcutaneously with MDA-MB-231 cells (5.10^6) at a single site on their right flanks. Tumors were allowed to grow to about 100 mm^3 before being pair-matched by tumor size into treatment groups (8 mice/group). One group was treated with vehicles (8 mice receiving cremofor 12.5%/ethanol 12.5%/ H2O), one group was treated with 10 mg/kg of the compound 1 of the invention (8 mice receiving compound 1 + cremofor 12.5%/ethanol 12.5%/ H2O), one group was treated with 50 mg/kg of the compound 1 of the invention (8 mice receiving compound 1+ cremofor 12.5%/ethanol 12.5%/ H2O). All groups received 3 times a week by oral gavages approximately 100 µL of a solution containing the compound 1 of the invention. Mice were weighed regularly to assess toxicity of the treatments and the tumors were measured with calipers (width x width x length x Pi/6) to determine tumor growth. Mice survival was assessed during the study and metastatic development was investigated in lung, spleen and liver.

SH-SY5Y = test: WST-1 proliferation / cytotoxic test; assay type: cell-based; conditions: Homo sapiens, Brain, wst-1 cytotoxic test, 72 h
Procedure: (§1) After observation of cells under the microscope, old media were removed and the adherent cells washed gently twice with PBS (Phosphate Buffer Saline, -Ca^2+, -Mg^2+, Lonza cat n°: 17-512F/12). All cells were detached with 3 ml of trypsin/EDTA (chelator of calcium and magnesium ions) (Lonza), incubated for 5 min at 37°C, and examined using a microscope to ensure that the cells were detached and floating. Then, 3 ml TNS (Trypsin Neutralizing Solution, Lonza, France, cat n° CC-5002) or of culture medium were added to inactivate the trypsin, and the cell suspension was transferred in a falcon tube and centrifuged for 7 min at 1400 rpm. The supernatant was removed and the cell pellet resuspended in […] of culture medium. 50 µL of this solution were transferred in 20 µL of isotonic solution and the cells were counted by count cellular (Beckman Coulter). At day 0, 200 µL of cellular suspension (3.10^3 cells/well for the HUVEC cells, breast cancer cells (MDA-MB-231 1.10^4 cells/well, MDA-MB-468 2.10^4 cells/well,); cervical cancer cells (HeLa 5.000 cells/well); colon cancer cells (HCT-116 5.10^3 cells/well, HCT-29 1.1.10^4 cells/well); pancreas cancer cells (Panc-10.5 1.5.10^4 cells/well); brain cancer cells (U87 5.10^3 cells/well, SH-SYSY 8.10^4 cells/well); Lung cancer cells (A 549 1.10^4 cells/well, NCI-H460 1.10^4 cells/well); fibrosarcoma cells (HT 1080 8.10^3 cells/well); Burkitt's lymphoma cells (DAUDI 3.10^4 cells/well); acute lymphoblastic leukemia cells (CEM 3.10^4 cells/well); chronic myeloid leukemia cells (ERY 5.10^4 cells/well); mantle cell lymphoma (GRANTA 1.10^5 cells/well); B lymphoma cells (VAL 1.10^5 cells/well)) were then plated on 96 well plates and incubated at 37°C in a humidified atmosphere of 5% CO2 for 24 h.
(§2) At day 1, the compound 1 of the invention was added at increasing concentrations (0.1 - 10 µM) in the wells and plates were incubated at 37°C in a humidified atmosphere of 5% CO2 for 72 h.
(§3) The cell proliferation WST-1 assay is a colorimetric assay for the quantification of cell proliferation and viability, based on the enzymatic cleavage of the tetrazolium salt WST-1 added to the culture medium, to a water soluble colored formazan dye, detected by absorbance at 450 nm, by mitochondrial succinate-tetrazoliumreductase in viable cells. An augmentation in enzyme activity will then lead to an increase in the amount of formazan dye formed, which directly correlates to the number of metabolically active cells in the culture.
(§4) After an incubation period of 72 h, at day 4, were prepared the 19 mL medium with reagent WST-1 1mL ([…]). The medium was removed from the 96 microplate and 200 µL of solution WST-1/medium were added for each well. The cells were incubated at 37°C in a humidified atmosphere of 5% CO2 for 1h30 and the absorbance at 450-655 nm was measured by Microplate Manager 5.2 (Bio-Rad).

Granta-519 = test: WST-1 proliferation / cytotoxic test; assay type: cell-based; conditions: Homo sapiens, Mantle cell lymphoma, wst-1 cytotoxic test, 72 h
Procedure: as §1, §2, §3, §4

A549 = test: WST-1 proliferation / cytotoxic test; assay type: cell-based; conditions: Homo sapiens, Lung, wst-1 cytotoxic test, 72 h
Procedure: as §1, §2, §3, §4

HT-1080 = test: WST-1 proliferation / cytotoxic test; assay type: cell-based; conditions: Homo sapiens, Fibrosarcoma, wst-1 cytotoxic test, 72 h
Procedure: as §1, §2, §3, §4

MDA-MB-468 = test: WST-1 proliferation / cytotoxic test; assay type: cell-based; conditions: Homo sapiens, Breast, wst-1 cytotoxic test, 72 h
Procedure: as §1, §2, §3, §4

Compound: CCOc1ccccc1NC(=O)c1ccc(C)c(S(=O)(=O)Nc2ccc(C)cc2)c1 [Compound 1, N-(2-ethoxyphenyl)-4-methyl-3-(N-(p-tolyl)sulfamoyl)benzamide]
- development of tumors (tumor size) (MDA-MB-231 cells): inhibits the development of tumors
- IC50 (SH-SY5Y): 100 ± 20 nM
- IC50 (Granta-519): 500 ± 70 nM
- IC50 (A549): 400 ± 30 nM
- IC50 (HT-1080): 300 ± 10 nM
- IC50 (MDA-MB-468): 500 ± 60 nM
